As usually defined, the inhibition is the drop in the measured response relative to a control, in per cent.

The subject of assay [1] is Wnt activity (Sp5-Luc reporter, SW480 colon carcinoma cells). The assay is described as follows: Wnt activity screening assay: Sp5-Luc reporter gene assay in SW480 cells. The assay is classed as cell-based. As to conditions: Homo sapiens; for EC50: SW480 cells, overnight incubation; for inhibition at 10 µM: given where EC50 >10 μM, SW480, read-out: percent inhibition at 10 μM. In outline:
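Luminescence (BrightGlo) read after overnight 37 °C exposure of Sp5-Luc SW480 reporter cells, 4,000/well in 1% FBS, to compound dosed 1:3 over 10 points from 10 μM with 0.1% DMSO. Values normalized to DMSO-only cells, fitted with variable-slope four-parameter model; where EC50 exceeds 10 μM, % inhibition at 10 μM reported.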
Background: In a reporter assay the amount or activity of a reporter protein is the signal.

Assay [2] concerns primary human mesenchymal stem cells (hMSCs). The assay is described as follows: Chondrogenesis induction in mesenchymal stem cells (nodule count). The format is cell-based. As to conditions: 144 h, 6 days; for Emax: relative to TGF-β3 (10 ng/mL) positive control, read-out: Max. Activity as % TGF-β3 activity; for EC50: concentration required to induce 50% levels of chondrogenesis vs TGF-β3, read-out: Conc (nM) of 50% TGF-β3 activity. The method, then: Representative compounds were screened using primary human mesenchymal stem cells (hMSCs) to determine their ability to induce chondrogenesis (process by which cartilage is developed).
Human Mesenchymal Stem Cell Culture: Primary human mesenchymal stem cells (hMSCs) were purchased from Lonza (Walkersville, Md.) and expanded in Mesenchymal Stem Cell Growth Media (Lonza). Cells between passage 3 and 6 were used for the experiments.
Compound Screening: Each compound was dissolved in DMSO as a 10 mM stock and used to prepare compound source plates. Serial dilution (1:3, 6-point dose-response curves from 2700 nM to 10 nM) and compound transfer was performed using the ECHO 550 (Labcyte, Sunnyvale, Calif.) into 96-well clear bottom assay plates (Greiner Bio-One) with appropriate DMSO backfill for a final DMSO concentration of 0.03%. hMSCs were plated at 20,000 cells/well in 250 μL/well Incomplete Chondrogenic Induction Medium (Lonza; DMEM, dexamethasone, ascorbate, insulin-transferrin-selenium [ITS supplement], gentamycin-amphotericin [GA-1000], sodium pyruvate, proline and L-glutamine). TGF-β3 (10 ng/mL) was used as a positive control for differentiation while negative control wells were treated with 75 nL DMSO for normalization and calculating EC50 values. Cells were incubated at 37° C. and 5% CO2 for 6 days. To image chondrogenic nodules, the cells were fixed using 4% formaldehyde (Electron Microscopy Sciences), and stained with 2 μg/mL Rhodamine B (Sigma-Aldrich) and 20 μM Nile Red (Sigma-Aldrich) [Johnson K., et. al, A Stem Cell-Based Approach to Cartilage Repair, Science, (2012). 336(6082), 717-721]. The nodules imaged (4 images per well at 4× magnification) by excitation at 531 nm and emission at 625 nm and quantified using the CellInsight CX5 (Thermo Scientific). Number of nodules in each well was normalized to the average of 3 DMSO treated wells on the same plate using Excel (Microsoft Inc.). The normalized averages (fold change over DMSO) of 3 replicate wells for each compound concentration were calculated. Due to solubility limitations of some of the compounds, curve fitting was incomplete leading to inaccurate EC50 determinations.
Using TGF-β3 as a positive control, the concentration of representative compounds required to induce 50% levels of chondrogenesis is reported. In addition, the maximum activity of each compound and the respective dose that each compound reached maximum chondrogenesis activity is reported.

Bounds are passed on as bounds.

Regarding `CN(C)CCOc1cncc(-c2ccc3[nH]nc(-c4cc5c(-c6cccnc6)ccnc5[nH]4)c3n2)c1` [Compound 563, N,N-Dimethyl-2-((5-(3-(4-(pyridin-3-yl)-1H-pyrrolo[2,3-b]pyridin-2-yl)-1H-pyrazolo[4,3-b]pyridin-5-yl)pyridin-3-yl)oxy)ethan-1-amine], in assay [1], the EC50 is over 10000 nM and the inhibition at 10 µM came to 7.2%. Moreover, the Emax in assay [2] turned out to be 22%.

Regarding `c1cc(-c2ccnc3[nH]c(-c4n[nH]c5ccc(-c6cncc(OCCN7CCCC7)c6)nc45)cc23)ccn1` [Compound 578, 3-(4-(Pyridin-4-yl)-1H-pyrrolo[2,3-b]pyridin-2-yl)-5-(5-(2-(pyrrolidin-1-yl)ethoxy)pyridin-3-yl)-1H-pyrazolo[4,3-b]pyridine], in assay [1], the EC50 is over 10000 nM and the inhibition at 10 µM was 7.7%. In addition, the Emax in assay [2] worked out at 40%.

With `CN1CCN(c2ccnc3[nH]c(-c4n[nH]c5ccc(-c6cn[nH]c6)nc45)cc23)CC1` [Compound 635, 3-(4-(4-Methylpiperazin-1-yl)-1H-pyrrolo[2,3-b]pyridin-2-yl)-5-(1H-pyrazol-4-yl)-1H-pyrazolo[4,3-b]pyridine], in assay [1], the EC50 was over 10000 nM and the inhibition at 10 µM came out at 13.4%. For the same compound, in assay [2], the EC50 turned out to be 300 nM and the Emax stood at 60%.

For `O=C(CC1CCNCC1)Nc1cncc(-c2ccc3[nH]nc(-c4cc5c(-c6ccoc6)ccnc5[nH]4)c3n2)c1` [Compound 689, N-(5-(3-(4-(Furan-3-yl)-1H-pyrrolo[2,3-b]pyridin-2-yl)-1H-pyrazolo[4,3-b]pyridin-5-yl)pyridin-3-yl)-2-(piperidin-4-yl)acetamide], in assay [1], the EC50 is over 10000 nM and the inhibition at 10 µM amounted to 10.9%. Further, in assay [2], the EC50 is 10 nM and the Emax turned out to be 102%.

With `c1csc(-c2ccnc3[nH]c(-c4n[nH]c5ccc(-c6cncc(OC7CCNCC7)c6)nc45)cc23)c1` [Compound 704, 5-(5-(Piperidin-4-yloxy)pyridin-3-yl)-3-(4-(thiophen-2-yl)-1H-pyrrolo[2,3-b]pyridin-2-yl)-1H-pyrazolo[4,3-b]pyridine], the EC50 in assay [1] was 3700 nM; in assay [2], 300 nM. In assay [2], the Emax is 51%.
